Assay results taken from PMC12163635, “Synthetic Retinoids for the Modulation of Genomic and Nongenomic Processes in Neurodegenerative Diseases” (ACS Omega, 2025).

How the values were obtained:
SH-SY5Y cells = experiment: Neurite outgrowth; format: cell-based, human; conditions: 10 nM, 5 days
Description: Following the characterization of retinoids for their genomic and nongenomic activities, the ability of retinoids to differentiate and induce neurite outgrowth in the neuroblastoma cell line, SH-SY5Y cells, was examined (Figure ). Neurite outgrowth can be induced in this cell line by ATRA at 10 μM.
(§1) SH-SY5Y cell line as used in ERK phosphorylation and neurite outgrowth assays described below. The cells were grown in DMEM containing 10% FCS at 37 °C with 5% CO2. The medium was changed three times a week and the cells were passaged at 70% confluence using 0.05% trypsin-EDTA.
SH-SY5Y cells were plated at 10,000 cells/well in 12-well plates containing 16 mm acid-treated/poly L-lysine-coated glass coverslips. After 24 h, retinoids were added to the medium and tested at two different concentrations, 10 μM and 10 nM, with a final DMSO concentration of 0.01 or 0.0001%, respectively. The plates were incubated for 5 days at 5% CO2/37 °C. All retinoid concentrations were tested in triplicate. Cells were fixed using 4% paraformaldehyde and stained for β-III tubulin (1:1000; Sigma). For each neurite outgrowth experiment, 3 coverslips (in 3 wells) were used. ImageJ software with the NeuronJ plugin was used to quantify neurite outgrowth on stained cells in each of the 10 randomly selected images of each coverslip taken using a Nikon Eclipse E400 fluorescence microscope. The average neurite length was calculated for each image by dividing total neurite length by the total number of neurites per image.
(§2) All data are presented as mean ± SEM of three independent experiments with biological triplicates. Statistical analyses were performed in Microsoft Office Excel 2019 or GraphPad Prism 7.0c version (Prism, GraphPad Software, San Diego, CA). Neurite outgrowth data were analyzed by one-way ANOVA with Newman-Keuls multiple comparison test as appropriate; P value <0.05 was considered statistically significant. *P < 0.05, **P < 0.01. Data for X-Gal and ERK1/2 phosphorylation were analyzed using sigmoidal dose–response analysis of log (agonist) versus response curve (stimulation).

[1] = tested on: Sil-15 cells containing a RARE driving a lacZ reporter; experiment: X-Gal-based RA reporter assay (genomic response); format: cell-based; set-up: genomic response Emax (±95% CI): unit not given here; conditions: for genomic EC50 compared with ATRA: nonoverlapping 95% CI; for EC50: read-out: genomic response EC50 (±95% CI), overnight, 10^–6 to 10^–14 M; for EC50 / genomic response Emax (±95% CI): Sil-15 reporter cells; for genomic response Emax (±95% CI): absorbance at 650 nm
From the text: Following chemical design and synthesis, the synthetic retinoid library was screened for genomic and nongenomic biological activities and compared to the response of the endogenous retinoid, ATRA. In these assays, the EC50 value represented the concentration of retinoid that gave half-maximal response (potency), while the E max value represented the maximum response achievable from the retinoid (efficacy).
The transcriptional genomic activity of the retinoids was quantified using Sil-15 cells containing a RARE driving a lacZ reporter. […] Twenty-two of the synthetic retinoids were effective in inducing genomic activity. […] In addition, the retinoids varied in their efficacies.
The Sil-15 cell line was used in the X-gal RA reporter assay described below. The cells were grown in Dulbecco’s modified Eagle’s medium (DMEM) containing 10% fetal bovine serum (FCS) (Invitrogen/Gibco), 0.6% penicillin-streptomycin (Gibco) and 0.8 mg/mL G418 sulfate (Sigma) for selection. They were maintained in a humidified atmosphere containing 5% CO2 at 37 °C. The medium was changed three times a week and the cells were passaged at 70% confluence using 0.05% trypsin-EDTA.
Sil-15 cells are F9 teratocarcinoma cells stably transfected with a plasmid containing the LacZ gene under the control of a DR5-type RA response element (RARE). The reporter cell line was used to detect the transcriptional genomic activity of ATRA and other retinoids by colorimetrically quantifying the insoluble blue product generated by β-galactosidase from X-gal during the assay. The assay was performed by plating 100,000 cells per well in the 0.1% gelatin-coated 96-well plates and leaving them to attach overnight. The ATRA/retinoids dilutions ranging from 10^–6 to 10^–14 M were incubated on the reporter cells overnight at 37 °C, in 5% CO2. A standard curve of ATRA was included in each experiment to ensure the reproducibility of the results between assays performed on different days. All the assays for ATRA as well as the retinoids were quantified in triplicate. Serial dilutions of retinoids were prepared from a stock solution under red/orange light. The stock solutions prepared in DMSO for each retinoid varied depending on the solubility of each compound. Each stock was stored at −20 °C and protected from light. The next day, Sil-15 cells were washed with PBS, fixed with 1% glutaraldehyde and 1 mM MgCl2 solution for 15 min, and developed in X-gal developing solution (0.2% X-Gal, 1 mM MgCl2, 3.3 mM potassium ferricyanide and 3.3 mM potassium ferrocyanide in PBS). The plates were read on an E max microplate reader (Molecular Devices) at 650 nm.
as §2

[2] = tested on: ERK1/2 phosphorylation in SH-SY5Y cells; experiment: ERK1/2 phosphorylation (nongenomic response), AlphaScreen SureFire; format: cell-based, human; conditions: for EC50: Homo sapiens, read-out: nongenomic response EC50 (±95% CI); for EC50 / nongenomic response Emax (±95% CI): SH-SY5Y cells, 1 h; for nongenomic E max compared with ATRA: nonoverlapping 95% CI
Description: After screening the retinoids for genomic responses, they were tested for their nongenomic ability to rapidly phosphorylate ERK1/2 in the SH-SY5Y cell line. ATRA is known as a potent activator of ERK1/2 − and was used as the standard for comparison. […] The efficacies of the remaining seven retinoids were similar to ATRA.
as §1
To quantify ERK1/2 phosphorylation, SH-SY5Y cells (100,000 cells/well) were plated onto 96-well plates and serum-starved for 24 h in DMEM. Cells were assayed in serum-free DMEM and stimulated for 60 min at 37 °C in a humidified atmosphere. Retinoids were tested at concentrations ranging from 10 to 4 to 10–11 M and at a final concentration of 0.1% DMSO. At the end of the assay, the medium was removed, and cells were lysed with lysis buffer supplied in the AlphaScreen SureFire ERK1/2 kit (PerkinElmer). The assay was performed in 384-well white Proxiplates according to the manufacturer’s instructions and using the beads supplied in the protein A general IgG detection kit (PerkinElmer). Briefly, 4 μL samples were incubated with 7 μL of the freshly prepared mixture containing donor and acceptor beads. Plates were incubated at room temperature and read with the Envision system (PerkinElmer Life Sciences) using AlphaScreen settings.
as §2

SMILES	induction of neurite outgrowth compared with ATRA (SH-SY5Y cells)	genomic EC50 compared with ATRA [1]	EC50 [1]	EC50 [2]	nongenomic response Emax (±95% CI) [2]	nongenomic E max compared with ATRA [2]	genomic response Emax (±95% CI) [1]
COc1cc2c(cc1C#Cc1ccc(C(=O)O)cc1F)C(C)(C)CCC2(C)C [Compound 21, 3-Fluoro-4-[2-(3-methoxy-5,5,8,8-tetramethyl-5,6,7,8-tetrahydronaphthalen-2-yl)ethynyl]benzoic Acid]	induced neurite outgrowth but not significantly compared to ATRA	significantly higher EC50 values than ATRA	5.31 nM	90.8 nM	36.9 (±2.86)	E max values significantly lower than ATRA	–
CC1=C(/C=C/C(C)=C/C=C/C(C)=C/C(=O)O)C(C)(C)CCC1 [ATRA, all-trans retinoic acid, reference compound]	does not significantly induce such outgrowth	–	1.04 nM	33.1 nM	48.6 (±1.85)	–	170 (±5.65)
CC1(C)CCC(C)(C)c2cc(C#Cc3ccc(C(=O)O)cc3)ccc21 [EC23, reference compound]	induced significant neurite outgrowth compared to ATRA	significantly lower EC50 than ATRA	0.128 nM	30.6 nM	92.5 (±6.96)	E max values significantly higher than ATRA	169 (±10.8)
